Like-named read-outs stand apart in the source and are kept apart here.
Tests used:
[1] = tested on: panel of 290 distinct kinases (321 in the larger panel), excluding mutant variants; details: kinase selectivity score, class symbols
mutant BRAF kinase = mutant BRAF kinase (Homo sapiens (Human), UniProt P15056, V600E); details: read-out: BRAF V600E Kd, class symbols
[2] = value marked * (larger kinase panel)

Sequence of mutant BRAF kinase (P15056 whole entry V600E): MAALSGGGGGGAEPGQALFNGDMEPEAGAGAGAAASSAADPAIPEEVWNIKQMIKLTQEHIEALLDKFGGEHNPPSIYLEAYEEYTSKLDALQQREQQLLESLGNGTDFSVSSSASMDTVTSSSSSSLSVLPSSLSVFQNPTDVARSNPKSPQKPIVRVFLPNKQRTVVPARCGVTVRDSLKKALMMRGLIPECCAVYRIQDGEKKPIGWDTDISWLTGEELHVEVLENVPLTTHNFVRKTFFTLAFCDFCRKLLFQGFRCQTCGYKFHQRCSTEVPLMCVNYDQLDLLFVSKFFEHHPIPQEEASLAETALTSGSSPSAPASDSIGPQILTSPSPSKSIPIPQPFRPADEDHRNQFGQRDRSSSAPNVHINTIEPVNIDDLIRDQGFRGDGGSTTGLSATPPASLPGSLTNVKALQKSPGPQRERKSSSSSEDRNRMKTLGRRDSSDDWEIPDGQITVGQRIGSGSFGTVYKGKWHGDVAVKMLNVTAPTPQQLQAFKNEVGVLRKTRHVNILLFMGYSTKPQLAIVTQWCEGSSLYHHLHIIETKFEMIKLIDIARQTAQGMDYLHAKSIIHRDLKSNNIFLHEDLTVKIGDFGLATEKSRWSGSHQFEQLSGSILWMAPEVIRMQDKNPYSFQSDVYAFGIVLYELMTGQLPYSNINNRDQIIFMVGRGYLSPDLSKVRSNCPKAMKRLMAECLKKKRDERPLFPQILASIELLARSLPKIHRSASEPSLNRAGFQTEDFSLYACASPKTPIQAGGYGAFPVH

SMILES	S35 ([1]; 290 distinct kinases)	Kd (mutant BRAF kinase)	S35 [1, 2]
COc1cc2ncnc(Sc3cccc(NC(=O)Nc4cc(C(C)(C)C)on4)c3)c2cc1OCCCN1CCN(S(C)(=O)=O)CC1 [Ex 60, 1-(5-tert-butylisoxazol-3-yl)-3-(3-(7-methoxy-6-(3-(4-(methylsulfonyl)piperazin-1-yl)propoxy)quinazolin-4-ylthio)phenyl)urea]	C (0.20 < C ≦ 0.40)	< 250 nM	–
COc1cc2ncnc(Sc3cccc(NC(=O)Nc4cc(C(C)(C)C)on4)c3)c2cc1OCCN1CCC(CO)CC1 [Ex 66, 1-(5-tert-butylisoxazol-3-yl)-3-(3-(6-(2-(4-(hydroxymethyl)piperidin-1-yl)ethoxy)-7-methoxyquinazolin-4-ylthio)phenyl)urea]	C (0.20 < C ≦ 0.40)	< 250 nM	–
COc1cc2ncnc(Sc3cccc(NC(=O)Nc4cc(C(C)(C)C)on4)c3)c2cc1OCCN1CCN(C)CC1 [Ex 67, 1-(5-tert-butylisoxazol-3-yl)-3-(3-(7-methoxy-6-(2-(4-methylpiperazin-1-yl)ethoxy)quinazolin-4-ylthio)phenyl)urea]	C (0.20 < C ≦ 0.40)	< 250 nM	–
COc1cc2ncnc(Sc3cccc(NC(=O)Nc4cc(C(C)(C)C)on4)c3)c2cc1OCCN1CCN(CCO)CC1 [Ex 68, 1-(5-tert-butylisoxazol-3-yl)-3-(3-(6-(2-(4-(2-hydroxyethyl)piperazin-1-yl)ethoxy)-7-methoxyquinazolin-4-ylthio)phenyl)urea]	C (0.20 < C ≦ 0.40)	< 250 nM	–
COc1cc2ncnc(Sc3cccc(NC(=O)Nc4cc(C(C)(C)C)on4)c3)c2cc1OCCN1CCN(S(C)(=O)=O)CC1 [Ex 69, 1-(5-tert-butylisoxazol-3-yl)-3-(3-(7-methoxy-6-(2-(4-(methylsulfonyl)piperazin-1-yl)ethoxy)quinazolin-4-ylthio)phenyl)urea]	C (0.20 < C ≦ 0.40)	< 250 nM	–
COc1cc2c(Sc3cccc(NC(=O)Nc4cc(C(C)(C)C)on4)c3)ncnc2cc1OCCCN1CCN(C)CC1 [Ex 73, 1-(5-tert-butylisoxazol-3-yl)-3-(3-(6-methoxy-7-(3-(4-methylpiperazin-1-yl)propoxy)quinazolin-4-ylthio)phenyl)urea]	D (D > 0.40)	< 250 nM	–
COc1cc2c(Sc3cccc(NC(=O)Nc4cc(C(C)(C)C)on4)c3)ncnc2cc1OCCCN1CCN(CCO)CC1 [Ex 75, 1-(5-tert-butylisoxazol-3-yl)-3-(3-(7-(3-(4-(2-hydroxyethyl)piperazin-1-yl)propoxy)-6-methoxyquinazolin-4-ylthio)phenyl)urea]	D (D > 0.40)	< 250 nM	–
COc1cc2c(Sc3cccc(NC(=O)Nc4cc(C(C)(C)C)on4)c3)ncnc2cc1OCCCN1CCCCC1 [Ex 76, 1-(5-tert-butylisoxazol-3-yl)-3-(3-(6-methoxy-7-(3-(piperidin-1-yl)propoxy)quinazolin-4-ylthio)phenyl)urea]	D (D > 0.40)	< 250 nM	–
COc1cc2c(Sc3cccc(NC(=O)Nc4cc(C(C)(C)C)on4)c3)ncnc2cc1OCCCN1CCN(S(C)(=O)=O)CC1 [Ex 77, 1-(5-tert-butylisoxazol-3-yl)-3-(3-(6-methoxy-7-(3-(4-(methylsulfonyl)piperazin-1-yl)propoxy)quinazolin-4-ylthio)phenyl)urea]	D (D > 0.40)	< 250 nM	–
COc1cc2c(Sc3cccc(NC(=O)Nc4cc(C(C)(C)C)on4)c3)ncnc2cc1OCCN1CCOCC1 [Ex 79, (1-(5-tert-butylisoxazol-3-yl)-3-(3-(6-methoxy-7-(2-morpholinoethoxy)quinazolin-4-ylthio)phenyl)urea)]	D (D > 0.40)	< 250 nM	–
COc1cc2c(Sc3cccc(NC(=O)Nc4cc(C(C)(C)C)on4)c3)ncnc2cc1OCCN1CCCCC1 [Ex 80, 1-(5-tert-butylisoxazol-3-yl)-3-(3-(6-methoxy-7-(2-(piperidin-1-yl)ethoxy)quinazolin-4-ylthio)phenyl)urea]	C (0.20 < C ≦ 0.40)	< 250 nM	–
COc1cc2c(Sc3cccc(NC(=O)Nc4cc(C(C)(C)C)on4)c3)ncnc2cc1OCCN1CCN(S(C)(=O)=O)CC1 [Ex 81, 1-(5-tert-butylisoxazol-3-yl)-3-(3-(6-methoxy-7-(2-(4-(methylsulfonyl)piperazin-1-yl)ethoxy)quinazolin-4-ylthio)phenyl)urea]	C (0.20 < C ≦ 0.40)	< 250 nM	–
COc1cc2c(Sc3cccc(NC(=O)Nc4cc(C(C)(C)C)on4)c3)ncnc2cc1OCCN1CCN(C)CC1 [Ex 83, 1-(5-tert-butylisoxazol-3-yl)-3-(3-(6-methoxy-7-(2-(4-methylpiperazin-1-yl)ethoxy)quinazolin-4-ylthio)phenyl)urea]	C (0.20 < C ≦ 0.40)	< 250 nM	–
CC(C)(C)c1cc(NC(=O)Nc2cccc(Sc3ncnc4ccc(OCCCN5CCS(=O)(=O)CC5)cc34)c2)no1 [Ex 90, 1-(5-tert-butyl-isoxazol-3-yl)-3-(3-{6-[3-(1,1-dioxo-thiomorpholin-4-yl)-propoxy]-quinazolin-4-ylsulfanyl}-phenyl)-urea]	C (0.20 < C ≦ 0.40)	< 250 nM	–
COc1cc2ncnc(Oc3cccc(NC(=O)Nc4cc(C(C)(C)C)on4)c3)c2cc1OCCN1CCS(=O)(=O)CC1 [Ex 91, 1-(5-tert-butyl-isoxazol-3-yl)-3-(3-{6-[2-(1,1-dioxo-thiomorpholin-4-yl)-ethoxy]-7-methoxy-quinazolin-4-yloxy}-phenyl)-urea]	C (0.20 < C ≦ 0.40)	< 250 nM	–
CC(C)(C)c1cc(NC(=O)Nc2cccc(Oc3ncnc4ccc(-c5ccc(CNCCS(C)(=O)=O)o5)cc34)c2)no1 [Ex 92, 1-(5-tert-butylisoxazol-3-yl)-3-{3-[6-(5-{[2-(methylsulfonyl)ethylamino]methyl}furan-2-yl)quinazolin-4-yloxy]phenyl}urea]	C (0.20 < C ≦ 0.40)	< 250 nM	–
COc1cc2c(Oc3cccc(NC(=O)Nc4cc(C(C)(C)C)on4)c3)ncnc2cc1O [Ex 95, 1-(5-tert-butylisoxazol-3-yl)-3-(3-(7-hydroxy-6-methoxyquinazolin-4-yloxy)phenyl)urea]	C (0.20 < C ≦ 0.40)	< 250 nM	–
COc1cc2c(Oc3cccc(NC(=O)Nc4cc(C(C)(C)C)on4)c3)ncnc2cc1O[C@H]1CCN(C)C1 [Ex 97, (S)-1-(5-tert-butylisoxazol-3-yl)-3-(3-(6-methoxy-7-(1-methylpyrrolidin-3-yloxy)quinazolin-4-yloxy)phenyl)urea mono acetate]	C (0.20 < C ≦ 0.40)	< 250 nM	–
COc1cc2c(Oc3cccc(NC(=O)Nc4cc(C(C)(C)C)on4)c3)ncnc2cc1O[C@@H]1CCN(C)C1 [Ex 99, (R)-1-(5-tert-butylisoxazol-3-yl)-3-(3-(6-methoxy-7-(1-methylpyrrolidin-3-yloxy)quinazolin-4-yloxy)phenyl)urea mono acetate]	C (0.20 < C ≦ 0.40)	< 250 nM	–
COc1cc2ncnc(Oc3cccc(NC(=O)Nc4cc(C(C)(C)C)on4)c3)c2cc1OC[C@H](O)CN1CCN(C)CC1 [Ex 112, (R)-1-(5-tert-butylisoxazol-3-yl)-3-(3-(6-(2-hydroxy-3-(4methylpiperazin-1-yl)propoxy)-7-methoxyquinazolin-4-yloxy)phenyl)urea]	D (D > 0.40)	< 250 nM	–
COCCOc1cc2ncnc(Oc3cccc(NC(=O)Nc4cccc(C(C)(C)C)c4)c3)c2cc1OC [Ex 119, 1-(3-tert-butylphenyl)-3-(3-(6-methoxy-7-(2-methoxyethoxy)quinazolin-4-yloxy)phenyl)urea]	–	< 250 nM	C* (0.20 < C ≦ 0.40)
COc1cc2ncnc(Oc3cccc(NC(=O)Nc4cc(C(F)(F)F)ncn4)c3)c2cc1OC [Ex 146, 1-(3-(6,7-dimethoxyquinazolin-4-yloxy)phenyl)-3-(6-(trifluoromethyl)pyrimidin-4-yl)urea]	–	< 250 nM	B* (0.10 < B ≦ 0.20)
COc1cc2ncnc(Oc3cccc(NC(=O)Nc4cc(C(C)(F)F)no4)c3)c2cc1OC [Ex 152, 1-(3-(1,1-difluoroethyl)isoxazol-5-yl)-3-(3-(6,7-dimethoxyquinazolin-4-yloxy)phenyl)urea]	–	< 250 nM	C* (0.20 < C ≦ 0.40)
COc1cc2ncnc(Sc3cccc(NC(=O)Nc4cc(C(C)(C)C)nn4C)c3)c2cc1OC [Ex 157, 1-(3-tert-butyl-1-methyl-1H-pyrazol-5-yl)-3-(3-(6,7-dimethoxyquinazolin-4-ylthio)phenyl)urea]	–	< 250 nM	C* (0.20 < C ≦ 0.40)
COc1cc2ncnc(Sc3cccc(NC(=O)Nc4cc(C(C)(CF)CF)no4)c3)c2cc1OC [Ex 160, 1-[3-(1,3-difluoro-2-methylpropan-2-yl)isoxazol-5-yl]-3-[3-(6,7-dimethoxyquinazolin-4-ylthio]phenyl)urea]	–	< 250 nM	C* (0.20 < C ≦ 0.40)
COc1cc2ncnc(Oc3cccc(NC(=O)Nc4ccc(C(C)(C)C)cc4)c3)c2cc1OC [Ex 173, 1-(4-tert-butylphenyl)-3-(3-(6,7-dimethoxyquinazolin-4-yloxy)phenyl)urea]	C (0.20 < C ≦ 0.40)	< 250 nM	–
COc1cc2ncnc(Oc3cccc(NC(=O)Nc4ccc(Cl)c(C(F)(F)F)c4)c3)c2cc1OC [Ex 176, 1-(4-chloro-3-(trifluoromethyl)phenyl)-3-(3-(6,7-dimethoxyquinazolin-4-yloxy)phenyl)urea]	C (0.20 < C ≦ 0.40)	< 250 nM	–
COc1cccc(NC(=O)Nc2cccc(Oc3ncnc4cc(OC)c(OC)cc34)c2)c1 [Ex 178, 1-(3-(6,7-dimethoxyquinazolin-4-yloxy)phenyl)-3-(3-methoxyphenyl)urea]	–	< 250 nM	B* (0.10 < B ≦ 0.20)
CCOc1cccc(NC(=O)Nc2cccc(Oc3ncnc4cc(OC)c(OC)cc34)c2)c1 [Ex 179, 1-(3-(6,7-dimethoxyquinazolin-4-yloxy)phenyl)-3-(3-ethoxyphenyl)urea]	–	< 250 nM	B* (0.10 < B ≦ 0.20)
COCCOc1cc2ncnc(Oc3cccc(NC(=O)Nc4cc(C(C)(C)C)no4)c3)c2cc1OC [Ex 202, 1-(3-tert-butylisoxazol-5-yl)-3-(3-(6-methoxy-7-(2-methoxyethoxy)quinazolin-4-yloxy)phenyl)urea]	C (0.20 < C ≦ 0.40)	< 250 nM	–
